According to US7928139B2 (Amgen Inc., priority 2006, dated 2011):

target: HIF PHD2 (Homo sapiens, UniProt Q9GZT9); assay: PHD2 inhibition assay (TR-FRET, VCB-Eu detection of hydroxylated P564-HIF1α peptide); format: biochemical; settings: 2 nM PHD2, 100 nM P564-HIF1α peptide, 0.25 μM 2-oxoglutarate, 100 μM FeCl2, 2 mM ascorbic acid
Protocol: Inhibition of HIF PHD2 activity was quantified utilizing the TR-FRET technology. HIF PHD2 catalyzes a hydroxyl modification on the proline residue of the P564-HIF1α peptide substrate (Biotin-DLEMLAPYIPMDDDFQL (SEQ ID NO: 7)) resulting in recognition and binding of the europylated Von Hippel-Lindau protein (pVHL), elongin B and elongin C heterotrimeric (VCB-Eu) complex.
The PHD2 inhibition assay was executed by addition of freshly dissolved FeCl2 to 178.57 μM (100 μM final concentration) in PHD2 Reaction Buffer containing 30 mM MES, pH 6, 10 mM NaCl, 0.25% Brij-35, 0.01% BSA, and 1% DMSO. 28 μL of the iron solution and 2 μL of inhibitor compounds serially diluted in 100% DMSO (5% DMSO final) were added to black polypropylene 96-well microtiter plates. To that, 10 μL of 10 nM PHD2 (2 nM final) was added to all wells of the plate except for the 8 wells of column 12 (LO control), and allowed to incubate at room temperature on the shaker for one hour. Column 6 was the HI control containing PHD2 enzyme and 5% DMSO vehicle, but no inhibitor compound. To initiate the PHD2 enzymatic reaction, 10 μL of a solution containing 500 nM P564-HIF1α peptide (100 nM final), 10 mM ascorbic acid (2 mM final), and 1.25 μM 2-oxoglutarate (α-ketoglutarate; 0.25 μM final) in PHD2 Reaction Buffer was added to all wells of the plate and allowed to incubate on the shaker at room temperature for one hour.
The reaction was terminated by addition of 25 μL TR-FRET Buffer (50 mM TRIS-HCl, pH 9, 100 mM NaCl, 0.05% BSA, and 0.5% Tween-20) containing 150 mM succinate (product inhibitor; 50 mM final), 75 nM streptavidin-APC (25 nM final), and 7.5 nM VCB-Eu (2.5 nM final). The TR-FRET detection reagents were placed on a shaker for 1 hour to reach binding equilibrium before reading on the Discovery platform (PerkinElmer). Europium is excited at 315 nm and phosphoresces at 615 nm with a large Stoke's shift. APC, in turn, emits at 655 nm upon excitation at 615 nm. The TR-FRET signal is measured as the ratio of the APC 655 nm signal divided by the internal europium reference 615 nm emission signal.
The POC (percentage of control) was determined by comparing the signal from hydroxylated peptide substrate in the enzyme reaction containing inhibitor compound with that from PHD2 enzyme with DMSO vehicle alone (HI control), and no enzyme (LO control). POC was calculated using the formula: % control (POC)=(cpd−average LO)/(average HI−average LO)*100. Data (consisting of POC and inhibitor concentration in μM) was fitted to a 4-parameter equation (y=A+((B−A)/(1+((x/C)^D))), where A is the minimum y (POC) value, B is the maximum y (POC), C is the x (cpd concentration) at the point of inflection and D is the slope factor) using a Levenburg-Marquardt non-linear regression algorithm.

Chain of HIF PHD2 (Q9GZT9 whole entry): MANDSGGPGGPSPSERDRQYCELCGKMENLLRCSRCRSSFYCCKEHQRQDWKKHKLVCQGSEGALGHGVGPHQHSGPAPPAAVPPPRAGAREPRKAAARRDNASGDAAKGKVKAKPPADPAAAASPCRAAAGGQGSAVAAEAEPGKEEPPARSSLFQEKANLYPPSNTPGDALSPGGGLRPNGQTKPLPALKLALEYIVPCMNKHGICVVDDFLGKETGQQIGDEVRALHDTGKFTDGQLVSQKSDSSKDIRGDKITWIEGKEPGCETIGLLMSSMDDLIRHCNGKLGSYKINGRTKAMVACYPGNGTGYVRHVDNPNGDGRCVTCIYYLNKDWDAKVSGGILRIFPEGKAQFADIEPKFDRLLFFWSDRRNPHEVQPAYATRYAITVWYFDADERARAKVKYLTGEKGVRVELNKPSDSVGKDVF

| SMILES | IC50 |
| --- | --- |
| COc1cccc2c1C(O)=C(C(=O)NCC(=O)O)C(=O)C21CCOCC1 [Example 18, N-((5-Methoxy-4-hydroxy-2-oxo-2′,3′,5′,6′-tetrahydro-spiro[naphthalene-1,4′-pyran]-3-yl)carbonyl)glycine] | < 100 nM |
| COc1ccc2c(c1)C1(CCOCC1)C(=O)C(C(=O)NCC(=O)O)=C2O [Example 19, N-((4-Hydroxy-7-(methyloxy)-2-oxo-2′,3′,5′,6′-tetrahydro-spiro[naphthalene-1,4′-pyran]-3-yl)carbonyl)glycine] | < 100 nM |
| CC1(C)C(=O)C(C(=O)NCC(=O)O)=C(O)c2ccc(OCc3ccccc3)c(F)c21 [Example 20, N-((8-Fluoro-4-hydroxy-1,1-dimethyl-2-oxo-7-((phenylmethyl)oxy)-naphthalen-3-yl)carbonyl)glycine] | 100 to 500 nM |
| CC(C)COc1ccc2c(c1F)C(C)(C)C(=O)C(C(=O)NCC(=O)O)=C2O [Example 21, N-((8-Fluoro-4-hydroxy-1,1-dimethyl-7-((2-methylpropyl)oxy)-2-oxo-naphthalen-3-yl)carbonyl)glycine] | 100 to 500 nM |
| COc1ccc2c(c1F)C(C)(C)C(=O)C(C(=O)NCC(=O)O)=C2O [Example 22, N-((8-Fluoro-4-hydroxy-1,1-dimethyl-7-(methyloxy)-2-oxo-naphthalen-3-yl)carbonyl)glycine] | 100 to 500 nM |
| CC1(C)C(=O)C(C(=O)NCC(=O)O)=C(O)c2ccc(O)c(F)c21 [Example 23, N-((8-Fluoro-4,7-dihydroxy-1,1-dimethyl-2-oxo-naphthalen-3-yl)carbonyl)glycine] | < 100 nM |
| CC1(C)C(=O)C(C(=O)NCC(=O)O)=C(O)c2ccc(F)c(F)c21 [Example 24, N-((7,8-Difluoro-4-hydroxy-1,1-dimethyl-2-oxo-naphthalen-3-yl)carbonyl)glycine] | < 100 nM |

Second part, the compound after the results:

| IC50 | SMILES |
| --- | --- |
| 100 to 500 nM | O=C(O)CNC(=O)C1=C(O)c2cc(Cl)ccc2C2(CCCC2)C1=O [Example 25, N-((6′-Chloro-4′-hydroxy-2′-oxo-spiro[cyclopentane-1,1′-naphthalen]-3′-yl)carbonyl)glycine] |
| 100 to 500 nM | CC1(C)C(=O)C(C(=O)NCC(=O)O)=C(O)c2c(C(F)(F)F)cccc21 [Example 26, N-((4-Hydroxy-1,1-dimethyl-2-oxo-5-(trifluoromethyl)-naphthalen-3-yl)carbonyl)glycine] |
| < 100 nM | CC1(C)C(=O)C(C(=O)NCC(=O)O)=C(O)c2cccc(F)c21 [Example 27, N-((8-Fluoro-4-hydroxy-1,1-dimethyl-2-oxo-naphthalen-3-yl)carbonyl)glycine] |
| < 100 nM | CC1(C#N)C(=O)C(C(=O)NCC(=O)O)=C(O)c2ccccc21 (stereo not shown) [Example 28, N-((1-Cyano-4-hydroxy-1-methyl-2-oxo-naphthalen-3-yl)carbonyl)glycine] |
| < 100 nM | CC1(C)C(=O)C(C(=O)NCC(=O)O)=C(O)c2ccc(Cl)c(Cl)c21 [Example 31, N-((7,8-Dichloro-4-hydroxy-1,1-dimethyl-2-oxo-naphthalen-3-yl)carbonyl)glycine] |
| 100 to 500 nM | CC1(C)C(=O)C(C(=O)NCC(=O)O)=C(O)c2cc(-c3ccc(F)cc3)ccc21 [Example 32, N-((6-(4-Fluorophenyl)-4-hydroxy-1,1-dimethyl-2-oxo-naphthalen-3-yl)carbonyl)glycine] |
| < 100 nM | CSc1ccc2c(c1)C(O)=C(C(=O)NCC(=O)O)C(=O)C2(C)C [Example 33, N-((4-Hydroxy-1,1-dimethyl-6-(methylthio)-2-oxo-naphthalen-3-yl)carbonyl)glycine] |
| 100 to 500 nM | CC1(c2ccc(Cl)cc2)C(=O)C(C(=O)NCC(=O)O)=C(O)c2cc(Cl)ccc21 (stereo not shown) [Example 34, N-((6-Chloro-1-(4-chlorophenyl)-4-hydroxy-1-methyl-2-oxo-naphthalen-3-yl)carbonyl)glycine] |
| 100 to 500 nM | CN(C)c1ccccc1-c1ccc2c(c1)C(O)=C(C(=O)NCC(=O)O)C(=O)C2(C)C [Example 35, N-((6-(2-(Dimethylamino)phenyl)-4-hydroxy-1,1-dimethyl-2-oxo-naphthalen-3-yl)carbonyl)glycine] |
